These results are taken from paper PMC10572855, “Phenotypic Test of Benzo[4,5]imidazo[1,2-c]pyrimidinone-Based Nucleoside and Non-Nucleoside Derivatives against DNA and RNA Viruses, Including Coronaviruses” (International Journal of Molecular Sciences, 2023).

One data set relates to HCoV OC43. The data set can be described thus: Cytopathic effect reduction, HCoV OC43. The class given is cell-based, Human coronavirus OC43. To be noted: Betacoronavirus 1, OC43; reduction of virus-induced cytopathic effect by 50%; virus input 100 TCID50; read-out: Antiviral Activity (EC50) HCoV OC43. (Cytopathic effects are the visible damage that an infection or toxin causes in cultured cells.)

Data set [1] has as its system SARS-CoV-2 B1.1 529 BA.1 (Omicron). The data set can be described thus: Cytopathic effect reduction, SARS-CoV-2 B1.1 529 BA.1 (Omicron) in Vero cells. As to conditions: Severe acute respiratory syndrome coronavirus 2, CPE reduced by 50%, read-out: Antiviral Activity (EC50) B1.1 529 BA.1 (Omicron). The class given is cell-based.
Data set [2] relates to SARS-CoV-2 NVDBB-2220 (UK). The data set can be described thus: Cytopathic effect reduction, SARS-CoV-2 NVDBB-2220 (UK) in Vero cells. The format is cell-based. As to conditions: Severe acute respiratory syndrome coronavirus 2, CPE reduced by 50%, 100 TCID50, read-out: Antiviral Activity (EC50) NVDBB-2220 (UK).
Data set [3] is described as follows: Cytotoxicity in HEL299 cells, MTS assay. The format is cell-based, Human. As to conditions: human, HEL299 cells, cell growth reduced by 50%. A general note: Tetrazolium assays rely on reduction of a dye to a coloured formazan, in cell work by metabolically active cells.
Procedure: (§1) Cells were seeded at a rate of 5 × 10^3 cells/well into 96-well plates and allowed to proliferate for 24 h. Then, a medium containing different concentrations of the test compounds, starting at 100 mM, was added. After 3 days of incubation at 37 °C, the cell count was determined with a Beckman Coulter counter or, alternatively, cell viability was determined with the colorimetric formazan-based MTS assay. […] The cytotoxic effects of the compounds were also assessed by evaluating the MCC (minimum cytotoxic concentration that causes a microscopically detectable alteration of cell morphology).
Data set [4] concerns TK- VZV strain 07-1. The data set can be described thus: microbe, parasite or virus in culture. As to conditions: Human alphaherpesvirus 3, HEL 299, read-out: Antiviral Activity (EC50) TK− VZV Strain 07-1.
Another data set relates to HCoV 229E. The data set can be described thus: Cytopathic effect reduction, HCoV 229E. To be noted: Human coronavirus 229E; reduction of virus-induced cytopathic effect by 50%; virus input 100 TCID50; read-out: Antiviral Activity (EC50) HCoV 229E. The class given is cell-based, Human coronavirus 229E.
For data set [5], the system named is SARS-CoV-2 860-J1 (Delta). The data set can be described thus: Cytopathic effect reduction, SARS-CoV-2 860-J1 (Delta) in Vero cells. The class given is cell-based. To be noted: Severe acute respiratory syndrome coronavirus 2, CPE reduced by 50%, 100 TCID50, read-out: Antiviral Activity (EC50) 860-J1 (Delta).
A short description of another data set: in vitro. As to conditions: green monkey.
Another data set relates to SARS-CoV-2 (all strains). The data set can be described thus: Cytopathic effect reduction, various SARS-CoV-2 strains in Vero cells. The format is cell-based. To be noted: Severe acute respiratory syndrome coronavirus 2, read-out: EC50 against all SARS-CoV-2 strains.
In another data set the test system is TK+ VZV strain OKA. The data set can be described thus: microbe, parasite or virus in culture. To be noted: Human alphaherpesvirus 3, HEL 299, read-out: Antiviral Activity (EC50) TK+ VZV Strain OKA. The class given is cell-based, Varicella zoster virus.
A further data set has as its system HCoV NL63. The data set can be described thus: Cytopathic effect reduction, HCoV NL63. The class given is cell-based, Human coronavirus NL63. As to conditions: Human coronavirus NL63; reduction of virus-induced cytopathic effect by 50%; virus input 100 TCID50; read-out: Antiviral Activity (EC50) HCoV NL63.
The target in data set [6] is SARS-CoV-2 RdRp (nsp12, nsp7-nsp8) (Severe acute respiratory syndrome coronavirus 2, UniProt P0DTD1). The data set can be described thus: In vitro transcription assay with SARS-CoV-2 RdRp. The class given is biochemical. To be noted: RdRp 1 µM, RNA substrate 25 nM, 100 µM NTPs, 30 °C; read-out: IC50, inhibition of RdRp activity (RNA primer extension).
The test system of data set [7] is SARS-CoV-2 UC-1074 (Wuhan). The data set can be described thus: Cytopathic effect reduction, SARS-CoV-2 UC-1074 (Wuhan) in Vero cells. The class given is cell-based. To be noted: Severe acute respiratory syndrome coronavirus 2, UC1074, CPE reduced by 50%, 100 TCID50, read-out: Antiviral Activity (EC50) UC-1074 (Wuhan).
A further data set deals with HEL299 cells. To be noted: minimum cytotoxic concentration, microscopically detectable alteration of cell morphology.
Data set [8] in a line: Cytotoxicity in Huh7 cells, MTS assay. The class given is cell-based, Human. As to conditions: human, Huh7 cells, cell growth reduced by 50%.
Procedure: as §1
The target of data set [9] is T1, SARS-CoV-2 N-protein and stem-loop vgRNA fragment condensates (Severe acute respiratory syndrome coronavirus 2, UniProt P0DTC9).
T1 construct: His-tag; made in house
The data set can be described thus: Cell-free LLPS assay, N-protein:vgRNA condensates. The class given is biochemical.

Another data set deals with RSV (Long). The data set can be described thus: Cytopathic effect reduction, RSV (Long). The format is cell-based, Respiratory syncytial virus. As to conditions: human respiratory syncytial virus; reduction of virus-induced cytopathic effect by 50%; virus input 100 TCID50; read-out: Antiviral Activity (EC50) RSV Long.
In a further data set the test system is Vero cells. As to conditions: minimum cytotoxic concentration, microscopically detectable alteration of cell morphology.
The test system of data set [10] is TK- VZV strain 07-1. The data set can be described thus: in vitro. To be noted: human.
Data set [11] can be described thus: Cell growth inhibition in HEL299 cells, Coulter Counter. The format is cell-based. To be noted: human, 3 days of cell growth, read-out: Cytotoxicity Cell Growth (CC50).
Procedure: as §1
[12] abbreviates: 20 µM compound, 3 µM N-protein, 6 µM RNA.

Some results are limits rather than exact numbers.

As a reminder, the IC50 is the concentration that inhibits the measured activity by half. As to `COc1ccc(C(OC[C@H]2O[C@@H](n3ccc4nc5cc(O)ccc5n4c3=O)C[C@@H]2O)(c2ccccc2)c2ccc(OC)cc2)cc1` [Compound 3a, 2-((2R,4S,5R)-5-((bis(4-methoxyphenyl)(phenyl)methoxy)methyl)-4-hydroxytetrahydrofuran-2-yl)-7-hydroxybenzo[4,5]imidazo[1,2-c]pyrimidin-1(2H)-one], the EC50 in the data set with HCoV OC43 was below 0.8 µM; in [1] it was 10.6 ± 0.7 µM; in data set [2] it was 8.92 ± 6.38 µM; in the data set on TK- VZV strain 07-1 [4] it was above 4 µM; in the data set on HCoV 229E it was 8.5 ± 0.36 µM; in data set [5], 11.3 ± 3.5 µM. Besides, the EC50 in the data set on SARS-CoV-2 (all strains) was around 10 µM; in the data set with TK+ VZV strain OKA, above 4 µM; with HCoV NL63, above 100 µM; in data set [7], 8.82 ± 0.21 µM; in [9] (dose-dependent effect, 3 µM N-protein, 6 µM RNA, read-out: EC50 of inhibition of condensate formation (LLPS)), at most 10 µM; in the data set on RSV (Long) it was 0.67 ± 0.23 µM. In addition, the values for the CC50 at 3 days in data set [3] and in data set [8] were above 100 µM and below 0.8 µM, respectively. The CC50 in “in vitro” is above 100 µM. Besides, the IC50 in data set [6] was determined as 94 ± 3 µM. Besides, in the data set on HEL299 cells, the “Cytotoxicity Cell Morphology (MCC)” value amounted to 20 μM. For the same molecule, the “effect on LLPS / condensates (summary in words)” value in [9] (20 µM compound) was “robust LLPS inhibitor”. For the same molecule, the “decrease of the average number of droplets” value in [9] (setting [12]) is given as “approximately 60%”. In data set [9] (setting [12]), the “decrease of the partitioning coefficient (droplet/solution N-protein concentration ratio)” value is recorded as 60–70%. In [9] (setting [12]), the median droplet diameter stood at 1.1 µm.

Turning to `COc1ccc(C(OC[C@H]2O[C@@H](n3ccc4nc5cc(OC)ccc5n4c3=O)C[C@@H]2O)(c2ccccc2)c2ccc(OC)cc2)cc1` [Compound 7a, 2-((2R,4S,5R)-5-((bis(4-methoxyphenyl)(phenyl)methoxy)methyl)-4-hydroxytetrahydrofuran-2-yl)-7-methoxybenzo[4,5]imidazo[1,2-c]pyrimidin-1(2H)-one], the EC50 was above 100 µM in data set [1], 3.28 ± 2.23 µM in the data set with TK- VZV strain 07-1 [4], 8.15 ± 3.59 µM in the data set on TK+ VZV strain OKA and above 20 µM in data set [7]. For the same molecule, the results for the “Cytotoxicity Cell Morphology (MCC)” value in the data set with Vero cells and in the data set with HEL299 cells were above 100 μM and 100 μM, respectively. Also, the selectivity ratio in the data set on TK- VZV strain 07-1 [10] is above 30. In addition, the CC50 at 3 days in data set [11] was above 100 µM. In addition, the “effect on LLPS / condensates (summary in words)” value in data set [9] (20 µM compound) is “caused no changes”.
